Experimental data taken from patent US4749571A, “Physiologically-active novel substance "Aldostatin" and production method thereof” (Toyo Jozo Co., Ltd., priority 1986, dated 1988).

How the values were obtained:
mice = assay: Acute toxicity; type: in vivo; settings: i.v., dose of 200 mg/kg
Solubility = type: physicochemical
aldose reductase = target: T1, aldose reductase (Bos taurus, UniProt P16116); assay: Aldose reductase inhibitory activity; type: biochemical, bovine (lenses); settings: partially purified bovine lens enzyme
T1 construct: partially purified aldose reductase derived from bovine lenses; from tissue; host or cells: bovine lenses
Protocol: The preparation of an aldose reductase and the quantitative analysis of its enzymatic activity were effected in accordance with the method described by Hayman et al. in "Journal of Biological Chemistry" 240, 877 (1965). It was a partially purified aldose reductase derived from bovine lenses that was employed as an enzyme. Placed in a quartz cell in a spectrophotometer photometer was 2.4 ml of a 5×10^- 5M NADPH solution dissolved in 2/15M phosphate buffer (pH 6.0), 0.4 ml of 15 milli-units/ml solution of the enzyme and 0.1 ml of an aqueous aldostatin of one of various concentration. The contents were pre-incubated at 37° C. for 4 minutes. […] The reduction of the absorbance at 340 nm was traced at 37° C. for 4 minutes. At that time, the value (B) of tan θ was determined. Similarly, the reduction of the absorbance at 340 nm without addition of the inhibitor "aldostatin" was tracked. At that time, the value (A) of tan θ was determined. Percent inhibition (%) was calculated as follows. [formula]
The amount of inhibitor for 50% inhibition was expressed as IC50.

For `O=CN[C@@H](Cc1ccc(O)c(-c2cc(C[C@H](NC=O)C(=O)O)ccc2O)c1)C(=O)O` [aldostatin], the “toxic effect (acute toxicity)” value (mice) was “no toxic effect”, the solubility (Solubility; acetone) was “slightly soluble” and the solubility (Solubility; benzene) was “insoluble”. The solubility (Solubility; chloroform) was “slightly soluble”, the solubility (Solubility; dimethylsulfoxide) was “soluble” and the solubility (Solubility; ethyl acetate) was “slightly soluble”. For the same compound, the solubility (Solubility; hexane) was “insoluble”, the solubility (Solubility; methanol) was “soluble” and the solubility (Solubility; petroleum ether) was “insoluble”. The solubility (Solubility; water) was “soluble”, the IC50 (aldose reductase; substrate glucose (5.0 × 10^-2 M)) was 2640 nM and the IC50 (aldose reductase; substrate glyceraldehyde (5.0 × 10^-4 M), NADPH, pH 6.0, 37° C.) was 1200 nM.
